Measurements as given in patent US9976141B2, “Compositions and methods for inhibiting gene expression of Hif2alpha” (Arrowhead Madison Inc., priority 2015, dated 2018).
“And” between values parts separate entries of the source, which are not always exact repeats. Equal entries are not always repeated.

What was measured:
[1] = tested on: human (tumor) Hif2α (EPAS1) mRNA; assay: Hif2α knockdown in orthotopic RCC tumor bearing mice, single injection of RNAi trigger-delivery polymer conjugate, RT-qPCR (Table 7); type: in vivo; conditions: single tail vein injection, relative to isotonic glucose
How it was run: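 Female athymic nude mice carried orthotopic A498-SEAP ccRCC kidney tumours, used 5–6 weeks after implantation. They received one tail-vein injection of RGD-targeted Hif2α RNAi trigger–polymer conjugate or isotonic glucose. Tumour Hif2α mRNA was measured by TaqMan RT-qPCR normalised to CycA (ΔΔCT) and expressed relative to glucose-treated mice.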

[2] = tested on: human (tumor) Hif2α (EPAS1) mRNA; assay: Hif2α expression in RCC tumor bearing mice after single injection of RGD targeted conjugates, 72 h, RT-qPCR (Table 11); type: in vivo
Experimental: Female athymic nude mice were anesthetized with ˜3% isoflourane and placed in the right lateral decubitus position. A small, 0.5-1 cm, longitudinally abdominal incision in the left flank was made. Using a moist cotton swab, the left kidney was lifted out of the peritoneum and gently stabilized. Just before injection, a 1.0 ml syringe was filled with the cell/Matrigel mixture and a 27 gauge needle catheter was attached to the syringe tip. The filled syringe was then attached to a syringe pump (Harvard Apparatus, model PHD2000) and primed to remove air. The tip of a 27-gauge needle catheter attached to a syringe was inserted just below the renal capsule near the caudal pole and the tip of the needle was then carefully advanced cranially along the capsule 3-4 mm. A 10 μl aliquot of 2:1 (vol:vol) cell/matrigel mixture containing about 300,000 cells was slowly injected into the kidney parenchyma using a syringe pump. The needle was left in the kidney for 15-20 seconds to ensure the injection was complete. The needle was then removed from the kidney and a cotton swab was placed over the injection site for 30 seconds to prevent leakage of the cells or bleeding. The kidney was then gently placed back into the abdomen and the abdominal wall was closed. Serum was collected every 7-14 days after implantation to monitor tumor growth using a commercial SEAP assay kit. For most studies, tumor mice were used 5-6 weeks after implantation, when tumor measurements were typically around 4-8 mm.
In preparation for quantitative PCR, total RNA was isolated from tissue samples homogenized in TriReagent (Molecular Research Center, Cincinnati, Ohio) following the manufacturer's protocol. Approximately 500 ng RNA was reverse-transcribed using the High Capacity cDNA Reverse Transcription Kit (Life Technologies). For human (tumor) Hif2α (EPAS1) expression, pre-manufactured TaqMan gene expression assays for human Hif2α (Catalog #4331182) and CycA (PPIA) Catalog #: 4326316E) were used in biplex reactions in triplicate using TaqMan Gene Expression Master Mix (Life Technologies) or VeriQuest Probe Master Mix (Affymetrix). For human (tumor) VegFa (VEGFA) expression, pre-manufactured TaqMan gene expression assays for human VegFa (Catalog #4331182, Assay ID: Hs00900055) and CycA (Part#: 4326316E) were used in biplex reactions in triplicate using TaqMan Gene Expression Master Mix (Life Technologies) or VeriQuest Probe Master Mix (Affymetrix). Quantitative PCR was performed by using a 7500 Fast or StepOnePlus Real-Time PCR system (Life Technologies). The ΔΔCT method was used to calculate relative gene expression.
RGD targeted HiF2α-RNAi trigger delivery polymer conjugates were formed using polymer 126, 100A, or 006. The RNAi trigger, μg indicates the quantity of trigger reacted with polymer. The polymer was modified with the indicated RGD mimic and PEG modifying agents as described above. Kidney RCC tumor-bearing mice were generated as described and treated with a single tail vein injection of isotonic glucose (G1) or the indicated Hif2α RNAi trigger-delivery polymer conjugate. Mice were euthanized 72 h (day 4) after injection and total RNA was prepared from kidney tumor using Trizol reagent following manufacturer's recommendation. Relative HiF2α mRNA levels were determined by RT-qPCR as described and compared to mice treated with delivery buffer (isotonic glucose) only (Table 11).

Substance: AD01214 (antisense TUUCAUGAAAUCGUUACGUTT; sense ACGUAACGAUUUCAUGAAAT; Hif2alpha RNAi agent antisense strand; modified_base 2,4,6,8,10,12,14,16,18 /mod_base = “2′-deoxy-2′-fluoro corresponding nucleoside”; modified_base 3,5,7,9,11,13,15,17,19 /mod_base = “2′-O-methyl corresponding nucleoside”; modified_base 21 /mod_base = “5′-phosphorothioate corresponding nucleotide”; Hif2alpha RNAi agent sense strand; modified_base 1,3,5,7,9,11,13,15,17,19 /mod_base = “2′-deoxy-2′-fluoro corresponding nucleoside”; modified_base 2,4,6,8,10,12,14,16,18 /mod_base = “2′-O-methyl corresponding nucleoside”; modified_base 20 /mod_base = “3′-3′-linked nucleotide”; modified_base 1 /mo)
- Relative Expression day 4 (Hif2α mRNA in kidney tumor) ([1]; RNAi trigger 80 μg, polymer 126 400 μg): 0.29
- Relative Expression day 4 (Hif2α mRNA in kidney tumor) ([1]; RNAi trigger 112.5 μg, polymer 006 300 μg): 0.36
- Relative Expression day 4 (Hif2α) ([2]; trigger 80 μg, polymer 126 280 μg, TFF, RGD-PEG8-HyNic 0.5×, PEG12-FCit-PABC-PNP): 0.489
- Relative Expression day 4 (Hif2α) ([2]; trigger 80 μg, polymer 126 280 μg, RGD-PEG8-ACit-PABC-PNP 0.4×, PEG6-ACit-PABC-PNP): 0.360
- Relative Expression day 4 (Hif2α) ([2]; trigger 80 μg, polymer 126 280 μg, RGD-PEG8-ACitFP-NHS 1×, PEG6-ACit-PABC-PNP): 0.288
- Relative Expression day 4 (Hif2α) ([2]; trigger 80 μg, polymer 126 280 μg, RGD-PEG8-HyNic 0.5×, PEG12-FCitFP-TFP): 0.210
- Relative Expression day 4 (Hif2α) ([2]; trigger 112.5 μg, polymer 006 300 μg, RGD-PEG8-HyNic, PEG12-ACit-PABC-PNP): 0.357
- Relative Expression day 4 (Hif2α) ([2]; trigger 112.5 μg, polymer 100A 375 μg, TFF, RGD-PEG15-FCitFP-TFP 0.5×, no. 10.8, PEG12-ACit-PABC-PNP): 0.193
- Relative Expression day 4 (Hif2α) ([2]; trigger 112.5 μg, polymer 100A 375 μg, TFF, RGD-PEG15-FCitFP-TFP 1×, no. 16.1, PEG12-ACit-PABC-PNP): 0.182
- Relative Expression day 4 (Hif2α) ([2]; trigger 112.5 μg, polymer 100A 375 μg, TFF, RGD-PEG15-FCitFP-TFP 2×, no. 29.0, PEG12-ACit-PABC-PNP): 0.182
- Relative Expression day 4 (Hif2α) ([2]; trigger 112.5 μg, polymer 100A 375 μg, TFF, RGD-PEG19-FCitFP-TFP 0.5×, no. 10.7, PEG12-ACit-PABC-PNP): 0.163
- Relative Expression day 4 (Hif2α) ([2]; trigger 112.5 μg, polymer 100A 375 μg, TFF, RGD-PEG19-FCitFP-TFP 1×, no. 18.5, PEG12-ACit-PABC-PNP): 0.114
- Relative Expression day 4 (Hif2α) ([2]; trigger 112.5 μg, polymer 100A 375 μg, TFF, RGD-PEG19-FCitFP-TFP 2×, no. 31.1, PEG12-ACit-PABC-PNP): 0.182
- Relative Expression day 4 (Hif2α) ([2]; trigger 112.5 μg, polymer 100A 375 μg, TFF, RGD-PEG20-FCitFP-TFP 0.125×, no. 1.9, PEG12-ACit-PABC-PNP): 0.169
- Relative Expression day 4 (Hif2α) ([2]; trigger 112.5 μg, polymer 100A 375 μg, TFF, RGD-PEG20-FCitFP-TFP 0.25×, no. 3.4, PEG12-ACit-PABC-PNP): 0.168
- Relative Expression day 4 (Hif2α) ([2]; trigger 112.5 μg, polymer 100A 375 μg, TFF, RGD-PEG20-FCitFP-TFP 0.5×, no. 6.6, PEG12-ACit-PABC-PNP): 0.130
- Relative Expression day 4 (Hif2α) ([2]; trigger 112.5 μg, polymer 100A 375 μg, TFF, RGD-PEG20-FCitFP-TFP 1×, no. 12.7, PEG12-ACit-PABC-PNP): 0.121
- Relative Expression day 4 (Hif2α) ([2]; trigger 112.5 μg, polymer 100A 375 μg, TFF, RGD-PEG20-FCitFP-TFP 1.5×, no. 20.3, PEG12-ACit-PABC-PNP): 0.135
- Relative Expression day 4 (Hif2α) ([2]; trigger 112.5 μg, polymer 100A 375 μg, RGD-PEG19-FCitFP-TFP 1×, PEG12-ACit-PABC-PNP): 0.195
- Relative Expression day 4 (Hif2α) ([2]; trigger 112.5 μg, polymer 100A 375 μg, RGD-PEG19-FCitFP-TFP 1×, PEG12-FCitFP-TFP): 0.148 and 0.188
- Relative Expression day 4 (Hif2α) ([2]; trigger 115 μg, polymer 100A 375 μg, RGD-PEG8-HyNic 0.5×, PEG12-FCitFP-TFP): 0.258
